Laboratory results taken from patent publication US12516058B2, “Small-molecule compounds for controlling endosomal toll-like receptors and therapeutic agent for autoimmune diseases using same” (priority 2020, dated 2026).
“Also recorded” adds a separate entry of the source.

Legend:
Type in all cases: cell-based
[1] = biological target: T1, TLR8 (Mus musculus, UniProt P58682); assay: TNF-α secretion ELISA after TLR8 agonist TL8-506 in RAW 264.7 cells; settings: SK41, SK50, SK58, SK64
T1 construct: endogenous in cells; host or cells: RAW 264.7
T1 sequence (P58682 24-1032): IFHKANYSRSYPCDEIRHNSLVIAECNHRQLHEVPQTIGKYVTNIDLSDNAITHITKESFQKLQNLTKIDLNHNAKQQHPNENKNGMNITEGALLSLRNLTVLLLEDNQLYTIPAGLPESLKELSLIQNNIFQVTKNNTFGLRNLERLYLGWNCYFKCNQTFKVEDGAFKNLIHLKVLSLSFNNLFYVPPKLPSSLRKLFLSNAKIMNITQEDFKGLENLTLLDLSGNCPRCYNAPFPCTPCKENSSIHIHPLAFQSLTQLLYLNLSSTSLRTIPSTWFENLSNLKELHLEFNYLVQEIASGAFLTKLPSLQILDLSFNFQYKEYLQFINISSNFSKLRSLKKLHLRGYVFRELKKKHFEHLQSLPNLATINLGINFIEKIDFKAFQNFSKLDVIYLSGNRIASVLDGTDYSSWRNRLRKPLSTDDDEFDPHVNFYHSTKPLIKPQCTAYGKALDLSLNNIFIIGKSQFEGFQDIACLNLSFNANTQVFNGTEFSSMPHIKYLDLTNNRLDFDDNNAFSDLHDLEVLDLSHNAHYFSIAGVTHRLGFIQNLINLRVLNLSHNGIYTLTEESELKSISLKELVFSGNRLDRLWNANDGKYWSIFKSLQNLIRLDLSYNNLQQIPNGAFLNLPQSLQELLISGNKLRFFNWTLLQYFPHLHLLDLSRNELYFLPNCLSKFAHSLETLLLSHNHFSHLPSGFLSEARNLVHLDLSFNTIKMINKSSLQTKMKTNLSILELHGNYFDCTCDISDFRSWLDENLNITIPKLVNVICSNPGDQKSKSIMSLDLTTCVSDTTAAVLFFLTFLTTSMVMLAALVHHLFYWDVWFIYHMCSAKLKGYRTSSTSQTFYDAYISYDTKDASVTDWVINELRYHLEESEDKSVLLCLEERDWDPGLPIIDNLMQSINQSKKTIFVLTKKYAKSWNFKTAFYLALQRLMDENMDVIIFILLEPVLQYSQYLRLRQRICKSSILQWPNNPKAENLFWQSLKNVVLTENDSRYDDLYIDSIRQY
Protocol: (§1) In order to determine the inhibitory activities of the test-ligand, RAW 264.7 cells were pretreated with each candidate compound for 1 hour, then treated with Pam3CSK4 (synthetic triacyl lipopeptide; TLR1/2, Invitrogen), FSL-1 (synthetic diacyl lipoprotein, TLR2/6, 100 ng/ml), lipopolysaccharide (LPS, TLR4, Sigma Aldrich), imiquimod (IMQ, TLR7, Invitrogen), and ODN2395 (type C CpG repeat motif DNA oligo(5′-[…]-3), TLR9, Bioneer) ligand for 4 hours, and treated with poly I:C (I:C repeat motif double-stranded RNA, TLR3, Invitrogen) and TL8-506 (TLR8, Invitrogen) showing delayed reactivity for 24 hours. After activation of TLR, the supernatant was diluted in an appropriate ratio so as to measure within the standard dose range, transferred to a pre-coated 96-well assay plate, and then treated with mouse TNF-alpha secretion level in accordance with the manufacturer's instructions using a mouse-TNF-alpha ELISA-kit (Invitrogen).
(§2) In order to determine the inhibitory activities of SK41, SK50, SK58 and SK64 on various TLR signaling pathways, RAW 264.7 cells were cultured along with each compound and then stimulated with different TLR agonists. The TLR agonists used herein were Pam3CSK4 (TLR1/2), FSL-1 (TLR2/6), LPS (TLR4) and FLA-ST (TLR5) as cell surface TLRs, and poly I:C (TLR3) and TL8-506 (TLR8) as endosomal TLRs.

[2] = biological target: T2, TLR1/2 (Mus musculus, UniProt Q9EPQ1+Q9QUN7); assay: TNF-α secretion ELISA after Pam3CSK4 in RAW 264.7 cells
T2 construct: endogenous in cells; host or cells: RAW 264.7
Protocol: as §1, §2

[3] = biological target: T3, TLR2/6 (Mus musculus, UniProt Q9EPW9+Q9QUN7); assay: TNF-α secretion ELISA after FSL-1 in RAW 264.7 cells
T3 construct: endogenous in cells; host or cells: RAW 264.7
Protocol: as §1, §2

[4] = biological target: T4, TLR4 (Mus musculus, UniProt Q9QUK6); assay: TNF-α secretion ELISA after LPS in RAW 264.7 cells
T4 construct: endogenous in cells; host or cells: RAW 264.7
T4 sequence (Q9QUK6 26-835): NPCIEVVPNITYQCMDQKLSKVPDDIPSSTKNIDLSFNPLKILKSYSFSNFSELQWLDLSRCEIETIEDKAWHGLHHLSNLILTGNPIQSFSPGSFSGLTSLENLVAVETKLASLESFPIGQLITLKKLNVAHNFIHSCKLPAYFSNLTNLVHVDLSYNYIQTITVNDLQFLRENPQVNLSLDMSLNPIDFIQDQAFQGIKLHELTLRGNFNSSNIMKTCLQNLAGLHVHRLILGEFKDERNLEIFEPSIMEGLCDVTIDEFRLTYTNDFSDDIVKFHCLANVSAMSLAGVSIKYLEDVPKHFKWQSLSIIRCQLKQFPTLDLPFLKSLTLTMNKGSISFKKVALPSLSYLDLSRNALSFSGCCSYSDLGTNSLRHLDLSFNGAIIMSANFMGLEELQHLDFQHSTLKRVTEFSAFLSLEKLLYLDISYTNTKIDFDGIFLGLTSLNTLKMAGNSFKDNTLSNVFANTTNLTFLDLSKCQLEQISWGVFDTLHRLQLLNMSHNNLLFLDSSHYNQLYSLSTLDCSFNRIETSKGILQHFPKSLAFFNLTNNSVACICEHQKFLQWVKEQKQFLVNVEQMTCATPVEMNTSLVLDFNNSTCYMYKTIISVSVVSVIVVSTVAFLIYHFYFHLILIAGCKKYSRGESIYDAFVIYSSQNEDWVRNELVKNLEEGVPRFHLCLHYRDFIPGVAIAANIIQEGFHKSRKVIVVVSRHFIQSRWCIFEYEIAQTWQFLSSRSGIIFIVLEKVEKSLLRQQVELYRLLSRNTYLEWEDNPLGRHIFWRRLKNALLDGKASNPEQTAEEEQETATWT
T4 sequence (Q9JHF9 19-160 partner): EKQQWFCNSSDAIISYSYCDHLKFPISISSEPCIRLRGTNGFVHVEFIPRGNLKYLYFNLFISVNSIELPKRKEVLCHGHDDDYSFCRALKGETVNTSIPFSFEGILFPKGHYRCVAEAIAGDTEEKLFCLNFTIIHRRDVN
Protocol: as §1, §2

[5] = biological target: T5, TLR5 (Homo sapiens, UniProt O60602); assay: TNF-α secretion ELISA after FLA-ST in differentiated THP-1 cells
T5 construct: endogenous in cells; host or cells: THP-1 (differentiated)
Protocol: In order to determine the inhibitory activity of the test-ligand against TLR5, differentiated THP-1 cells were pretreated with each compound for 1 hour and then treated with FLA-ST ([…] flagellar protein, TLR5, Invitrogen) for 4 hours. After activation of the TLRs, the supernatant was diluted and transferred to a pre-coated 96-well assay plate, and the level of human TNF-alpha secretion was measured in accordance with the manufacturer's instructions using the human TNF-alpha ELISA-kit (Invitrogen).
as §2

T2 sequence (Q9EPQ1 26-795): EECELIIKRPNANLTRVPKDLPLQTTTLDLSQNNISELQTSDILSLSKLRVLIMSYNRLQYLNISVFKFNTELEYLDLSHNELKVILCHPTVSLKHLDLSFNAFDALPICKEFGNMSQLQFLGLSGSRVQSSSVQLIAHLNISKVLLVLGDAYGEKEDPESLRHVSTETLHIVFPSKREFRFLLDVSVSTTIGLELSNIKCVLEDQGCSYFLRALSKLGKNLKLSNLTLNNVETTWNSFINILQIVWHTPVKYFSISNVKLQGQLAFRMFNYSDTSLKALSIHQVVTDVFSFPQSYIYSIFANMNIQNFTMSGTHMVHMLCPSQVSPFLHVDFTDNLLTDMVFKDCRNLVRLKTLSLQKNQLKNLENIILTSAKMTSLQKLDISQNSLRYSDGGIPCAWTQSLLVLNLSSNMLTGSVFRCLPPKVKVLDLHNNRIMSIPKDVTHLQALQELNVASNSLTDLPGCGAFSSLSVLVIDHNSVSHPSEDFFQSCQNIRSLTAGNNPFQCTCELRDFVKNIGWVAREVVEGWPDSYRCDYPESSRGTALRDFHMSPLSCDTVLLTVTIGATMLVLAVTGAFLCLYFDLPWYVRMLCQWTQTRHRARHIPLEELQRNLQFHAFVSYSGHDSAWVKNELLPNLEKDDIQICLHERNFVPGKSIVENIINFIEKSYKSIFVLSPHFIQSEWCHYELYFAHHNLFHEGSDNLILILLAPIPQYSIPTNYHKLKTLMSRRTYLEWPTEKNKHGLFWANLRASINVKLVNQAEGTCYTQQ
T2 sequence (Q9QUN7 25-784): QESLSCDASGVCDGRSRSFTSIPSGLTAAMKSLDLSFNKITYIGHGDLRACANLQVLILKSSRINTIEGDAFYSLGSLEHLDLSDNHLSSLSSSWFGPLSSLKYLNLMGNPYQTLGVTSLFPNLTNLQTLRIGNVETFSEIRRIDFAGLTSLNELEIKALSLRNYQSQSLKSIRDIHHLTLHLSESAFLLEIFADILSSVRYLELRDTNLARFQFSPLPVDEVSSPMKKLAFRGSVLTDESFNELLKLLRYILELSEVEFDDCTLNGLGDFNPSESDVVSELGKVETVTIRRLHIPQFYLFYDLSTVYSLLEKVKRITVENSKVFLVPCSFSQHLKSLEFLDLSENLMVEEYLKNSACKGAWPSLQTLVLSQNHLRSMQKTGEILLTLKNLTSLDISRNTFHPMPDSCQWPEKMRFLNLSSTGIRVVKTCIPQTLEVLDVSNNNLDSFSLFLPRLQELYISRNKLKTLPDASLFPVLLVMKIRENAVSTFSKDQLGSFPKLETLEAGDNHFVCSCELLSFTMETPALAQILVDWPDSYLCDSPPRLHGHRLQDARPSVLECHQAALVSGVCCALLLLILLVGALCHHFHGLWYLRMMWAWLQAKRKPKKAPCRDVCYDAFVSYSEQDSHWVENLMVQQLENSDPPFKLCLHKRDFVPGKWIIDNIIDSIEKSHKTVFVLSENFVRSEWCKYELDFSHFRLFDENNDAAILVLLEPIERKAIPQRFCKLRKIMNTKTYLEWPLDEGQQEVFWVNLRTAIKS
T5 sequence (O60602 21-858): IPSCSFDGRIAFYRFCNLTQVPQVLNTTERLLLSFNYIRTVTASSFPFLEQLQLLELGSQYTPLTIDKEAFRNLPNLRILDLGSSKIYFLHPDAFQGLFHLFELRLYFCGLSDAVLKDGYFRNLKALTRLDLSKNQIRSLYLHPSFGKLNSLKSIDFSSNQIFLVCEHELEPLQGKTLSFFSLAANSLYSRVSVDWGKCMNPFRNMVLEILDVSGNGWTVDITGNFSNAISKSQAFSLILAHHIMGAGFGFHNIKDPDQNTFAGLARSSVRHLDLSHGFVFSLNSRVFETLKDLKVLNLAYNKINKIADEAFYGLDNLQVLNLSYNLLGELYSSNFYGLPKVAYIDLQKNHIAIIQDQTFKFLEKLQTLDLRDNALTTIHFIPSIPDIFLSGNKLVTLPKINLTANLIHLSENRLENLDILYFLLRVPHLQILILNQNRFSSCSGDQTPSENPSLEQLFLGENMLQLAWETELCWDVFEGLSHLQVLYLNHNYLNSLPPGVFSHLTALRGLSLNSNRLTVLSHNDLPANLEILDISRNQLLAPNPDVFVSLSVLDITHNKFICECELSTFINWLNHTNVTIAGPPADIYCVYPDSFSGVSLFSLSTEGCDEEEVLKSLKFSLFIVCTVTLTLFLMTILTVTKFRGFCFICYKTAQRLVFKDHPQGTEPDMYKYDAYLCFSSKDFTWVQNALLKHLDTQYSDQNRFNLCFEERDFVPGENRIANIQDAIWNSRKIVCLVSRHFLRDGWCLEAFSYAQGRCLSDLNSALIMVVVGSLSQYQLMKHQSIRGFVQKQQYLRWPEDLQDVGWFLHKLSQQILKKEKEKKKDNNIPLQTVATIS
T3 sequence (Q9QUN7 25-784): as the sequence (Q9QUN7 25-784) above
T3 sequence (Q9EPW9 28-795): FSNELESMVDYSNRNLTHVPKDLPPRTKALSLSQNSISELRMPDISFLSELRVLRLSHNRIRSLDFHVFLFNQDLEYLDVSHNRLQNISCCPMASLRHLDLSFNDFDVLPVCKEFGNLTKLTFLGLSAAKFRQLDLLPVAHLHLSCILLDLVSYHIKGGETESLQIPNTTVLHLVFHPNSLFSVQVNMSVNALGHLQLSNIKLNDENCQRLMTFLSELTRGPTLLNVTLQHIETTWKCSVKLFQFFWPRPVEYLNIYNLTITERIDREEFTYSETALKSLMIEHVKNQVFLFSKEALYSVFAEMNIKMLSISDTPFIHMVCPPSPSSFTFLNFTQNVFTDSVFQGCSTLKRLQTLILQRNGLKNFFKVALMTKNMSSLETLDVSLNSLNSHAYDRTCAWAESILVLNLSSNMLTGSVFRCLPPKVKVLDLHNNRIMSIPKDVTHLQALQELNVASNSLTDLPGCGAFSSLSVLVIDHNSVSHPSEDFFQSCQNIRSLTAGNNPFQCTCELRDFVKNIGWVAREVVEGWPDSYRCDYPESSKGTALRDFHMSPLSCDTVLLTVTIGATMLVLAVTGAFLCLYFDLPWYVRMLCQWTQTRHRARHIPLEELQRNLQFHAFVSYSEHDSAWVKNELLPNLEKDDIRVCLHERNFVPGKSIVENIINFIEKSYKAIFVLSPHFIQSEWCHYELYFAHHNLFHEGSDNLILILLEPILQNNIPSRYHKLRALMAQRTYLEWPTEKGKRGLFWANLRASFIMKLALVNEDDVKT

Row | SMILES | inhibitory activity against endosomal TLR8 (TNF-α secretion) [1] | inhibitory activity against cell surface TLR1/2 (TNF-α secretion) [2] | inhibitory activity against cell surface TLR2/6 (TNF-α secretion) [3] | inhibitory activity against cell surface TLR4 (TNF-α secretion) [4] | inhibitory activity against cell surface TLR5 (TNF-α secretion) [5]
1 | Cc1cc2c(N)c3c(nc2n1CCCN(C)C)CCCCCC3 [SK41, 1-(3-(dimethylamino)propyl)-2-methyl-5,6,7,8,9,10-hexahydro-1H-cycloocta[b]pyrrolo[3,2-e]pyridin-4-amine] | strong inhibitory activity; also recorded: specific inhibitory activities | did not exhibit a specific inhibitory activity; also recorded: no inhibitory activities | did not exhibit a specific inhibitory activity; also recorded: no inhibitory activities | did not exhibit a specific inhibitory activity; also recorded: no inhibitory activities | did not exhibit a specific inhibitory activity; also recorded: no inhibitory activities
2 | COc1ccc2c(c1)c1c(N)c3c(nc1n2CCCN(C)C)CCCC3 [SK50, 6-(3-(dimethylamino)propyl)-9-methoxy-2,3,4,6-tetrahydro-1H-indolo[2,3-b]quinolin-11-amine] | strong inhibitory activity; also recorded: specific inhibitory activities | did not exhibit a specific inhibitory activity; also recorded: no inhibitory activities | did not exhibit a specific inhibitory activity; also recorded: no inhibitory activities | did not exhibit a specific inhibitory activity; also recorded: no inhibitory activities | did not exhibit a specific inhibitory activity; also recorded: no inhibitory activities
3 | Cc1ccc2c(c1)c1c(N)c3c(nc1n2CCCN(C)C)CCCC3 [SK58, 6-(3-(dimethylamino)propyl)-9-methyl-2,3,4,6-tetrahydro-1H-indolo[2,3-b]quinolin-11-amine] | strong inhibitory activity; also recorded: specific inhibitory activities | did not exhibit a specific inhibitory activity; also recorded: no inhibitory activities | did not exhibit a specific inhibitory activity; also recorded: no inhibitory activities | did not exhibit a specific inhibitory activity; also recorded: no inhibitory activities | did not exhibit a specific inhibitory activity; also recorded: no inhibitory activities
4 | COC(=O)c1ccc2c(c1)c1c(N)c3c(nc1n2CCCN(C)C)CCCC3 [SK64, Methyl 11-amino-6-(3-(dimethylamino)propyl)-2,3,4,6-tetrahydro-1H-indolo[2,3-b]quinolin-9-carboxylate] | strong inhibitory activity; also recorded: specific inhibitory activities | did not exhibit a specific inhibitory activity; also recorded: no inhibitory activities | did not exhibit a specific inhibitory activity; also recorded: no inhibitory activities | did not exhibit a specific inhibitory activity; also recorded: no inhibitory activities | did not exhibit a specific inhibitory activity; also recorded: no inhibitory activities
